Test results taken from US10478406B2, “High-pH solid-state epinephrine formulation” (HARC Therapeutics AG, priority 2019, dated 2019).

Assay: Suspension assay testing: epinephrine dissolved in suspension
Assay type: physicochemical
Excerpt: Sample numbers /1 and /2 were not acidic. To confirm that these samples produced solid state epinephrine rather than dissolved epinephrine, I had these samples assayed to determine whether the epinephrine had in fact dissolved into solution and if so, by what amount.
Sample numbers /3 and /4 were basic pH. I thus had these samples assayed to determine whether the epinephrine dissolved into solution and if so, by what amount.

CNC[C@H](O)c1ccc(O)c(O)c1 [Epinephrine, 4-[(1 R)-1-Hydroxy-2-(methylamino)ethyl]-1,2-benzenediol]
total epinephrine that dissolves in water (basic pH 8.5): about 0.1% | total epinephrine that dissolves in water (pH 7, without added acid): about 0.45%
